Test results as given in patent US4122184A, “Benzimidazole insecticides” (priority 1977, dated 1978).

Experiments:
Picnic Beetle = assay: Field trial (first summer), topical; format: in vivo; conditions: .078125 μg/μl
Outline: (§1)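 Field trial from the first summer in which 1 µl of test solution holding a set number of micrograms of benzimidazole was applied topically to larvae or adult insects. Mortality at a given route and concentration was scored on a 0–9 scale.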

Confused Flour Beetle = assay: Field trial (first summer), topical; format: in vivo
Outline: as §1

Yellow Mealworm Larvae = assay: Field trial, topical application; format: in vivo; parameters: key: 0 = 0-10% mortality, 9 = 91-100% mortality (0-9 scale)
Outline: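 1 μL benzimidazole solution of set microgram content applied topically to larvae or adults. Mortality read at 24, 48 and 72 h where applicable, rated 0-9 (0 = 0-10%, 9 = 91-100%); values are average mortality per concentration.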

Alfalfa Weevil Larvae [1] = assay: Field trial, stomach poison test; format: in vivo
Outline: (§2)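 Leaves from infested plants sprayed (10 psi) or dipped in test compound at several concentrations, air-dried, then five or ten insects placed per dish, one or two replicates. Mortality scored 0 to 9 at 24, 48 and 72 h, averaged per concentration.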

Aphids - Apple = assay: Field trial, stomach poison test; format: in vivo
Outline: as §2

[2] = test system: Potato Flea Beetle Adults; assay: Field trial, stomach poison test; format: in vivo
Outline: as §2

Aphids - Tulip Tree = assay: Field trial, stomach poison test; format: in vivo
Outline: as §2

Aphids - Sour Gum = assay: Field trial, stomach poison test; format: in vivo
Outline: as §2

Meadow Spittlebug = assay: Field trial, stomach poison test; format: in vivo
Outline: as §2

Asparagus Beetles Adults [3] = assay: Field trial, stomach poison test; format: in vivo
Outline: as §2

[4] = test system: Unidentified Green Leafhopper; assay: Field trial, stomach poison test; format: in vivo; parameters: key: mortality rating on a 0 to 9 scale
Outline: as §2

[5] = test system: Tarnished Plant Bug Adults; assay: Field trial, stomach poison test; format: in vivo; parameters: key: mortality rating on a 0 to 9 scale
Outline: as §2

Alfalfa Weevil Larvae [6] = assay: Field trial, contact poison test; format: in vivo
Outline: (§3)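 Each infested plant sits in a water-filled bottle to prevent wilting, and the test compound is then atomized onto it at 10 psi at various concentrations. Falling dead insects are collected, and mortality is rated 0 (0-10%) to 9 (91-100%) at up to 72 h.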

[7] = test system: Potato Flea Beetle Adults; assay: Field trial, contact poison test; format: in vivo
Outline: as §3

Asparagus Beetles Adults [8] = assay: Field trial, contact poison test; format: in vivo
Outline: as §3

Alfalfa Weevil Larvae [9] = assay: Field trial, topical application; format: in vivo
Description: The results are read at 24, 48, and 72 hours when applicable. The rating scale is 0 to 9 where 0 = 0-10 percent and 9 = 91-100 percent mortality.
In a variation of the above test, 1 microliter of a test solution containing a predetermined number of micrograms of benzimidazole was applied directly to larvae or adult insects.
Using the above methods, field trials were carried out against species of 5 orders of insects. The results, which are summarized in the following tables, give the average mortality for the particular insect with a given benzimidazole for each concentration employed. […] These tables contain all results obtained during the summer trials.

Boll Weevil [10] = assay: Boll Weevil Test; format: in vivo, Anthonomus grandis (Coleoptera); conditions: 48 h
Text: The procedure is identical to that employed for the Mexican bean beetle and the Southern armyworm, except that 10 adult boll weevils are placed on cotton leaves that have been dipped into formulations of the test compounds. The same rating scale is used.

Boll Weevil [11] = assay: Field trial (first summer), topical; format: in vivo, Anthonomus grandis
Outline: as §1

Melon Aphid = Melon Aphid Test; format: in vivo, Aphis gossypii (Hemiptera); conditions: 24 h
Text: Four blue hubbard squash seeds are planted per container in vermiculite and the containers watered from the bottom. After 6 days, the two weakest plants are cut off and one cotyledon and the primary leaves are removed from each of the two remaining plants. The remaining cotyledon is infested with 100 melon aphids from a stock colony by pinning the cotyledon against an aphid-infested squash cotyledon from the colony and allowing the aphids to transfer. After transfer, the colony leaf is removed. Forty-eight hours later, the infested leaves are sprayed to wetting with formulations containing graded amounts of the insecticide using a DeVilbiss atomizer at 10 psi held at 12-15 inches from the plant. Controls consist of two infested, unsprayed squash plants and two infested plants sprayed to wetting with a formulation containing 100 ppm malathion as a reference standard. The mortality is estimated 24 hours after spraying by observation using a 10 power dissecting microscope. The same rating scale is used as before.

O=[N+]([O-])c1cc(C(F)(F)F)cc2nc(C(F)(F)F)[nH]c12 [A, 2,6-bis(trifluoromethyl)-4-nitrobenzimidazole]
insect mortality rating (Picnic Beetle): 9 (91-100 percent mortality)
insect mortality rating (Confused Flour Beetle; .078125 μg/μl): 9 (91-100 percent mortality)
average mortality rating (Yellow Mealworm Larvae; 0.03 μg/μl): 3
average mortality rating (Yellow Mealworm Larvae; 0.07 μg/μl): 5
average mortality rating (Yellow Mealworm Larvae; 0.15 μg/μl): 5
average mortality rating (Alfalfa Weevil Larvae [1]; 125 ppm): 7
average mortality rating (Alfalfa Weevil Larvae [1]; 250 ppm): 7
average mortality rating (Alfalfa Weevil Larvae [1]; 500 ppm): 7
average mortality rating (Aphids - Apple; 25 ppm): 1
average mortality rating (Aphids - Apple; 50 ppm): 4
average mortality rating (Aphids - Apple; 100 ppm): 4
average mortality rating ([2]; 10 ppm): 9 (91-100 percent mortality)
average mortality rating ([2]; 25 ppm): 6
average mortality rating ([2]; 50 ppm): 9 (91-100 percent mortality)
average mortality rating ([2]; 100 ppm): 9 (91-100 percent mortality)
average mortality rating (Aphids - Tulip Tree; 25 ppm): 8
average mortality rating (Aphids - Tulip Tree; 50 ppm): 5
average mortality rating (Aphids - Tulip Tree; 100 ppm): 8
average mortality rating (Aphids - Sour Gum; 25 ppm): 7
average mortality rating (Aphids - Sour Gum; 50 ppm): 9 (91-100 percent mortality)
average mortality rating (Aphids - Sour Gum; 100 ppm): 9 (91-100 percent mortality)
average mortality rating (Meadow Spittlebug; 10 ppm): 2
average mortality rating (Meadow Spittlebug; 25 ppm): 0 (0-10 percent)
average mortality rating (Meadow Spittlebug; 50 ppm): 1
average mortality rating (Asparagus Beetles Adults [3]; 5 ppm): 0 (0-10 percent)
average mortality rating (Asparagus Beetles Adults [3]; 10 ppm): 3
average mortality rating (Asparagus Beetles Adults [3]; 25 ppm): 9 (91-100 percent mortality)
average mortality rating ([4]; 10 ppm): 4
average mortality rating ([4]; 25 ppm): 2
average mortality rating ([4]; 50 ppm): 6
average mortality rating ([5]; 10 ppm): 3
average mortality rating ([5]; 25 ppm): 1
average mortality rating ([5]; 50 ppm): 2
average mortality rating (Alfalfa Weevil Larvae [6]; 500 ppm): 3
average mortality rating (Alfalfa Weevil Larvae [6]; 750 ppm): 3
average mortality rating (Alfalfa Weevil Larvae [6]; 1000 ppm): 5
average mortality rating ([7]; 10 ppm): 9 (91-100 percent mortality)
average mortality rating ([7]; 25 ppm): 9 (91-100 percent mortality)
average mortality rating ([7]; 50 ppm): 8
average mortality rating ([7]; 100 ppm): 8
average mortality rating ([7]; 250 ppm): 9 (91-100 percent mortality)
average mortality rating (Asparagus Beetles Adults [8]; 10 ppm): 7
average mortality rating (Asparagus Beetles Adults [8]; 25 ppm): 7
average mortality rating (Asparagus Beetles Adults [8]; 50 ppm): 8
average mortality rating (Alfalfa Weevil Larvae [9]; 0.03 μg/μl): 2
average mortality rating (Alfalfa Weevil Larvae [9]; 0.07 μg/μl): 2
average mortality rating (Alfalfa Weevil Larvae [9]; 0.1 μg/μl): 1
mortality rating (Boll Weevil [10]; 5 ppm): 7.5
mortality rating (Boll Weevil [10]; 10 ppm): 6.7
mortality rating (Boll Weevil [10]; 25 ppm): 8.8
mortality rating (Boll Weevil [10]; 50 ppm): 8.5
insect mortality rating (Boll Weevil [11]; .078125 μg/μl): 9 (91-100 percent mortality)

CCCCCCOC(=O)n1c(C(F)(F)F)nc2c([N+](=O)[O-])cc(C(F)(F)F)cc21 [E, n-hexyl 2,6-bis(trifluoromethyl)-4-nitro-1-benzimidazolecarboxylate]
insect mortality rating (Picnic Beetle): 9 (91-100 percent mortality)
insect mortality rating (Confused Flour Beetle; .3125 μg/μl): 9 (91-100 percent mortality)
average mortality rating (Yellow Mealworm Larvae; 0.03 μg/μl): 2
average mortality rating (Yellow Mealworm Larvae; 0.07 μg/μl): 3
average mortality rating (Yellow Mealworm Larvae; 0.15 μg/μl): 4
average mortality rating (Alfalfa Weevil Larvae [1]; 125 ppm): 1
average mortality rating (Alfalfa Weevil Larvae [1]; 250 ppm): 4
average mortality rating (Alfalfa Weevil Larvae [1]; 500 ppm): 3
average mortality rating (Aphids - Apple; 25 ppm): 5
average mortality rating (Aphids - Apple; 50 ppm): 5
average mortality rating (Aphids - Apple; 100 ppm): 7
average mortality rating ([2]; 10 ppm): 9 (91-100 percent mortality)
average mortality rating ([2]; 25 ppm): 9 (91-100 percent mortality)
average mortality rating ([2]; 50 ppm): 7
average mortality rating ([2]; 100 ppm): 8
average mortality rating (Aphids - Tulip Tree; 25 ppm): 6
average mortality rating (Aphids - Tulip Tree; 50 ppm): 6
average mortality rating (Aphids - Tulip Tree; 100 ppm): 8
average mortality rating (Aphids - Sour Gum; 25 ppm): 1
average mortality rating (Aphids - Sour Gum; 50 ppm): 3
average mortality rating (Aphids - Sour Gum; 100 ppm): 5
average mortality rating (Meadow Spittlebug; 10 ppm): 1
average mortality rating (Meadow Spittlebug; 25 ppm): 2
average mortality rating (Meadow Spittlebug; 50 ppm): 3
average mortality rating (Meadow Spittlebug; 100 ppm): 1
average mortality rating (Asparagus Beetles Adults [3]; 5 ppm): 3
average mortality rating (Asparagus Beetles Adults [3]; 10 ppm): 5
average mortality rating (Asparagus Beetles Adults [3]; 25 ppm): 9 (91-100 percent mortality)
average mortality rating ([4]; 10 ppm): 4
average mortality rating ([4]; 25 ppm): 7
average mortality rating ([4]; 50 ppm): 7
average mortality rating ([5]; 10 ppm): 1
average mortality rating ([5]; 25 ppm): 2
average mortality rating ([5]; 50 ppm): 3
average mortality rating (Alfalfa Weevil Larvae [6]; 500 ppm): 4
average mortality rating (Alfalfa Weevil Larvae [6]; 750 ppm): 2
average mortality rating (Alfalfa Weevil Larvae [6]; 1000 ppm): 4
average mortality rating ([7]; 10 ppm): 6
average mortality rating ([7]; 25 ppm): 9 (91-100 percent mortality)
average mortality rating ([7]; 50 ppm): 9 (91-100 percent mortality)
average mortality rating ([7]; 100 ppm): 9 (91-100 percent mortality)
average mortality rating ([7]; 250 ppm): 9 (91-100 percent mortality)
average mortality rating (Asparagus Beetles Adults [8]; 10 ppm): 7
average mortality rating (Asparagus Beetles Adults [8]; 25 ppm): 8
average mortality rating (Asparagus Beetles Adults [8]; 50 ppm): 9 (91-100 percent mortality)
average mortality rating (Alfalfa Weevil Larvae [9]; 0.03 μg/μl): 2
average mortality rating (Alfalfa Weevil Larvae [9]; 0.07 μg/μl): 2
average mortality rating (Alfalfa Weevil Larvae [9]; 0.1 μg/μl): 4
mortality rating (Boll Weevil [10]; 25 ppm): 6.5
insect mortality rating (Boll Weevil [11]; .15625 μg/μl): 9 (91-100 percent mortality)
mortality rating (Melon Aphid; 5 ppm): 1.5
mortality rating (Melon Aphid; 100 ppm): 9.5

mixture of benzyl 2,6-bis(trifluoromethyl)-4-nitro-1-benzimidazolecarboxylate and benzyl 2,5-bis(trifluoromethyl)-7-nitro-1-benzimidazolecarboxylate
insect mortality rating (Picnic Beetle): 9 (91-100 percent mortality)
insect mortality rating (Confused Flour Beetle; .078125 μg/μl): 9 (91-100 percent mortality)
average mortality rating (Yellow Mealworm Larvae; 0.03 μg/μl): 1
average mortality rating (Yellow Mealworm Larvae; 0.07 μg/μl): 4
average mortality rating (Yellow Mealworm Larvae; 0.15 μg/μl): 5
average mortality rating (Alfalfa Weevil Larvae [1]; 125 ppm): 3
average mortality rating (Alfalfa Weevil Larvae [1]; 250 ppm): 5
average mortality rating (Alfalfa Weevil Larvae [1]; 500 ppm): 6
average mortality rating (Alfalfa Weevil Larvae [6]; 500 ppm): 4
average mortality rating (Alfalfa Weevil Larvae [6]; 750 ppm): 4
average mortality rating (Alfalfa Weevil Larvae [6]; 1000 ppm): 6
average mortality rating (Alfalfa Weevil Larvae [9]; 0.03 μg/μl): 2
average mortality rating (Alfalfa Weevil Larvae [9]; 0.07 μg/μl): 1
average mortality rating (Alfalfa Weevil Larvae [9]; 0.1 μg/μl): 4
mortality rating (Boll Weevil [10]; 10 ppm): 4.5
mortality rating (Boll Weevil [10]; 25 ppm): 8.5
mortality rating (Boll Weevil [10]; 50 ppm): 7 (71-80)
mortality rating (Boll Weevil [10]; 100 ppm): 9 (91-100)
mortality rating (Boll Weevil [10]; 250 ppm): 9 (91-100)
mortality rating (Boll Weevil [10]; 500 ppm): 9 (91-100)
mortality rating (Boll Weevil [10]; 1000 ppm): 9 (91-100)
insect mortality rating (Boll Weevil [11]; .078125 μg/μl): 9 (91-100 percent mortality)
mortality rating (Melon Aphid; 100 ppm): 0 (0-10)
mortality rating (Melon Aphid; 250 ppm): 5 (51-60)
mortality rating (Melon Aphid; 500 ppm): 9 (91-100)
mortality rating (Melon Aphid; 1000 ppm): 8 (81-90)
